Laboratory results reported in PMC10053865 (2023).

Assays:
[1] = tested on: Cocaine aptamer (ITO-supported sensor) (DNA, aptamer) GACAAGGAAAATCCTTCAACGAAGTGGGTC; assay: square-wave voltammetry (60 Hz), Hill fit; conditions: 137 mM NaCl, 2.7 mM KCl; 1x PBS pH 7.4, 23 °C; apparent; procaine hydrochloride
[2] = tested on: Cocaine aptamer (Au-supported sensor) (DNA, aptamer) GACAAGGAAAATCCTTCAACGAAGTGGGTC; assay: square-wave voltammetry (80 Hz), Hill fit; conditions: 137 mM NaCl, 2.7 mM KCl; 1x PBS pH 7.4, 23 °C; apparent; procaine hydrochloride

Work on `CCN(CC)CCOC(=O)c1ccc(N)cc1` yielded a KD-ITO [1] of 6.2 ± 0.6 mM and a KD-Au [2] of 63.7 ± 9.3 mM.
